Assay results taken from ChEMBL document CHEMBL1201862, “PubChem BioAssay data set” (2004).
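Method: 48-hour compound exposure of cells in 96-well plates, five concentrations, linear interpolation of endpoints. Here, GI50 denotes the concentration required for 50% inhibition of growth.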 Activity calls are given as the source filed them. Rule as the data show it: active = GI50 up to about 1.1 µM and inactive = higher.

Experiments:
Assay in all cases: NCI anticancer screen, dose series, 48 h
SNB-75 = tested on: SNB-75
SK-MEL-2 = tested on: SK-MEL-2
K562 = tested on: K562
DU-145 = tested on: DU-145
A549 = tested on: A549
OVCAR-3 = tested on: OVCAR-3
HCT-116 = tested on: HCT-116
HCT-15 = tested on: HCT-15
UACC-257 = tested on: UACC-257
A498 = tested on: A498
SNB-19 = tested on: SNB-19
UO-31 = tested on: UO-31
CCRF-CEM = tested on: CCRF-CEM
TK-10 = tested on: TK-10
SR = tested on: SR
M14 = tested on: M14
MCF7 = tested on: MCF7
SF-295 = tested on: SF-295
NCI-H460 = tested on: NCI-H460
HT-29 = tested on: HT-29
UACC-62 = tested on: UACC-62
NCI-H522 = tested on: NCI-H522
U-251 = tested on: U-251
RPMI-8226 = tested on: RPMI-8226
HL-60 = tested on: HL-60
SW-620 = tested on: SW-620
NCI-H23 = tested on: NCI-H23
EKVX = tested on: EKVX
BT-549 = tested on: BT-549
Hs-578T = tested on: Hs-578T
IGROV-1 = tested on: IGROV-1
HOP-92 = tested on: HOP-92
OVCAR-8 = tested on: OVCAR-8
Malme-3M = tested on: Malme-3M
SN12C = tested on: SN12C
MOLT-4 = tested on: MOLT-4
ACHN = tested on: ACHN
RXF 393 = tested on: RXF 393
NCI-H226 = tested on: NCI-H226
OVCAR-4 = tested on: OVCAR-4
MDA-MB-435 = tested on: MDA-MB-435
786-0 = tested on: 786-0
HOP-62 = tested on: HOP-62
SK-MEL-28 = tested on: SK-MEL-28
PC-3 = tested on: PC-3
KM12 = tested on: KM12
OVCAR-5 = tested on: OVCAR-5
MDA-MB-231 = tested on: MDA-MB-231

SMILES: COc1ccc(/C=N/CCC/N=C/c2ccc(OC)cc2O)c(O)c1
- GI50 (SNB-75): 13.9 µM (inactive)
- GI50 (SK-MEL-2): 34.8 µM (inactive)
- GI50 (K562): 69 µM (inactive)
- GI50 (DU-145): 37.8 µM (inactive)
- GI50 (A549): > 100 µM (inactive)
- GI50 (OVCAR-3): 16 µM (inactive)
- GI50 (HCT-116): 71.9 µM (inactive)
- GI50 (HCT-15): 37.5 µM
- GI50 (UACC-257): 36.6 µM (inactive)
- GI50 (A498): > 100 µM (inactive)
- GI50 (SNB-19): 47 µM (inactive)
- GI50 (UO-31): 46 µM (inactive)
- GI50 (CCRF-CEM): 29.6 µM (inactive)
- GI50 (TK-10): > 100 µM (inactive)
- GI50 (SR): 54.6 µM (inactive)
- GI50 (M14): 75.3 µM (inactive)
- GI50 (MCF7): 55.7 µM (inactive)
- GI50 (SF-295): 17.7 µM (inactive)
- GI50 (NCI-H460): > 100 µM (inactive)
- GI50 (HT-29): 97.3 µM (inactive)
- GI50 (UACC-62): 27 µM (inactive)
- GI50 (NCI-H522): > 100 µM (inactive)
- GI50 (U-251): 40.6 µM (inactive)
- GI50 (RPMI-8226): 38.3 µM (inactive)
- GI50 (HL-60): 39.9 µM (inactive)
- GI50 (SW-620): 57.9 µM (inactive)
- GI50 (NCI-H23): > 100 µM (inactive)
- GI50 (EKVX): 29.3 µM (inactive)
- GI50 (BT-549): 48.9 µM (inactive)
- GI50 (Hs-578T): 22 µM (inactive)
- GI50 (IGROV-1): 43.4 µM (inactive)
- GI50 (HOP-92): 17.6 µM (inactive)
- GI50 (OVCAR-8): 35.6 µM (inactive)
- GI50 (Malme-3M): 23.8 µM (inactive)
- GI50 (SN12C): 26.1 µM (inactive)
- GI50 (MOLT-4): 49.1 µM (inactive)
- GI50 (ACHN): 48.6 µM (inactive)
- GI50 (RXF 393): > 100 µM (inactive)
- GI50 (NCI-H226): 16.7 µM (inactive)
- GI50 (OVCAR-4): 36.8 µM (inactive)
- GI50 (MDA-MB-435): 46.1 µM (inactive)
- GI50 (786-0): 76.6 µM (inactive)
- GI50 (HOP-62): > 100 µM (inactive)
- GI50 (SK-MEL-28): 41 µM (inactive)
- GI50 (PC-3): 42 µM (inactive)
- GI50 (KM12): 47.4 µM (inactive)
- GI50 (OVCAR-5): 64.4 µM (inactive)
- GI50 (MDA-MB-231): 38.7 µM (inactive)
